According to ChEMBL document CHEMBL3868610, “Novel bicyclo[3.1.0]hexane analogs as antagonists of metabotropic glutamate 2/3 receptors for the treatment of depression” (Bioorg Med Chem Lett, 2016):
Values after ≈ are worked out from the molar mass of the structure shown. Active and inactive are the calls of the source. The rule behind the calls is not given here.

What was measured:
[1] = target: T1, Metabotropic glutamate receptor 3 (Homo sapiens, UniProt Q14832); experiment: Antagonist activity at recombinant human mGlu3 receptor expressed in hamster AV12 cells assessed as inhibition of DCG-4-inhibited forskolin-stimulated cAMP formation up to 25 uM after 20 mins by HTRF assay relative to control; assay type: functional, cell-based
Target sequence in this assay (Q14832 23-879 limits assumed): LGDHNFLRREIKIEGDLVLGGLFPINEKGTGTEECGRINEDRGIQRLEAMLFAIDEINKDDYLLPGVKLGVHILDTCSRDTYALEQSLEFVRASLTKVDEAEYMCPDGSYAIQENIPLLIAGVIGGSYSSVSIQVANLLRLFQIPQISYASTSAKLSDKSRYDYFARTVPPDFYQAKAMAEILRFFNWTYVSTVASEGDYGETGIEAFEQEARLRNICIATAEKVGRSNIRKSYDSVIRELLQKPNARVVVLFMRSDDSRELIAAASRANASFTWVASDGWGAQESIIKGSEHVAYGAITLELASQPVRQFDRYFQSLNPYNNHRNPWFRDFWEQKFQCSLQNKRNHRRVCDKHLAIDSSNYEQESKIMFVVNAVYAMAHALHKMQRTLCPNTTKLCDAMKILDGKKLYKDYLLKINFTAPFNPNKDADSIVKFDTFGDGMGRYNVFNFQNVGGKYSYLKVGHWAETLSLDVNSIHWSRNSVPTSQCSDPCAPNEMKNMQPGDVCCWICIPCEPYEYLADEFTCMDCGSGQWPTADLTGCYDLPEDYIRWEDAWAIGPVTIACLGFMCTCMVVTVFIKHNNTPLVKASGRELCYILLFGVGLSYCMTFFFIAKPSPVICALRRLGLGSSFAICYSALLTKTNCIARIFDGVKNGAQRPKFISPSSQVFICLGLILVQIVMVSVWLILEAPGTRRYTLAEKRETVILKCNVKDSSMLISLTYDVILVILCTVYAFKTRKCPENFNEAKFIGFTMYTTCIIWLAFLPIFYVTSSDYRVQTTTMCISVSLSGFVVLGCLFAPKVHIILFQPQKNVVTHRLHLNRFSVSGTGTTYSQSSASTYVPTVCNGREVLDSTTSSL

[2] = target: Voltage-gated inwardly rectifying potassium channel KCNH2 (Homo sapiens, UniProt Q12809); experiment: Displacement of [3H]-Astemizole from human ERG by membrane binding assay
[3] = target: Metabotropic glutamate receptor 8 (Homo sapiens, UniProt O00222); experiment: Agonist activity at recombinant human mGlu8 receptor expressed in hamster AV12 cells co-expressing human EAAT1 assessed as induction of forskolin-stimulated cAMP formation after 20 mins by HTRF assay; assay type: functional, cell-based
[4] = Antidepressant activity in ip dosed rat EEG model assessed as accumulated wake time measured over 7 hrs relative to control; assay type: functional, organism-based
[5] = Aqueous solubility of compound at pH 7.4; assay type: physicochemical; settings: aqueous medium
[6] = target: T2, Metabotropic glutamate receptor 7 (Homo sapiens, UniProt Q14831); experiment: Agonist activity at recombinant human mGlu7 receptor expressed in hamster AV12 cells co-expressing human EAAT1/Galpha1s assessed as increase in Ca2+ flux by Fluo-3-AM dye based FLIPR assay; assay type: functional, cell-based
[7] = Cmax in rat at 1 mg/kg, iv; assay type: ADME, organism-based; design: dose 1 mg/kg, route intravenous; settings: in vivo
[8] = target: ABCB1 (P-gp) (Homo sapiens, UniProt P08183); experiment: Inhibition of human ABCB1 expressed in MDCK cells at 5 to 25 uM relative to control; assay type: ADME, cell-based; settings: MDCK-MDR1
[9] = Antidepressant activity in ip dosed NIH Swiss Webster mouse assessed as reduction in immobility time administered 30 mins prior to evaluation measured on the last 4 mins of the 6 mins observation time by forced swim test; assay type: functional, organism-based
[10] = Cmax in rat at 5 mg/kg, po; assay type: ADME, organism-based; design: dose 5 mg/kg, route oral; settings: in vivo
[11] = Permeability from apical side to basolateral side in MDCK cells at 20 uM; assay type: ADME, cell-based, Canis lupus familiaris; settings: dog
[12] = Unbound fraction in mouse; assay type: ADME, organism-based; settings: in vivo
[13] = Drug uptake in NIH Swiss Webster mouse brain at 3 mg/kg, ip at 30 mins; assay type: ADME, organism-based; settings: read-out: Drug uptake
[14] = target: Metabotropic glutamate receptor 6 (Homo sapiens, UniProt O15303); experiment: Agonist activity at recombinant human mGlu6 receptor expressed in hamster AV12 cells co-expressing EAAT1 assessed as induction of forskolin-stimulated cAMP formation after 20 mins by HTRF assay; assay type: functional, cell-based
[15] = Unbound fraction in rat plasma at 1 uM; assay type: ADME, cell-free
[16] = Drug uptake in NIH Swiss Webster mouse brain at 1 mg/kg, ip at 30 mins; assay type: ADME, organism-based; settings: read-out: Drug uptake
[17] = target: Metabotropic glutamate receptor 1 (Homo sapiens, UniProt Q13255); experiment: Antagonist activity at recombinant human mGlu1 receptor expressed in hamster AV12 cells coexpressing human EAAT1/Galpha1s assessed as inhibition of Ca2+ flux by Fluo-3-AM dye based FLIPR assay; assay type: functional, cell-based
[18] = target: T3, Metabotropic glutamate receptor 5 (Homo sapiens, UniProt P41594); experiment: Agonist activity at recombinant human mGlu5 receptor expressed in hamster AV12 cells co-expressing human EAAT1/Galpha1s assessed as increase in Ca2+ flux by Fluo-3-AM dye based FLIPR assay; assay type: functional, cell-based
[19] = AUC (0 to 24 hrs) in rat at 10 mg/kg, ip; assay type: ADME, organism-based; design: dose 10 mg/kg, time < 24 hr, route intraperitoneal; settings: in vivo
[20] = Antidepressant activity in NIH Swiss Webster mouse assessed as immobility time at 1 mg/kg, ip administered 30 mins prior to test measured during last 4 mins of the 6 mins observation time by forced swim test (reference value: 142 sec); assay type: functional, organism-based
[21] = Half life in rat at 5 mg/kg, po; assay type: ADME, organism-based; settings: in vivo
[22] = Oral bioavailability in rat at 5 mg/kg; assay type: ADME, organism-based; settings: in vivo
[23] = Half life in rat at 10 mg/kg, ip; assay type: ADME, organism-based; settings: in vivo
[24] = Tmax in rat at 10 mg/kg, ip; assay type: ADME, organism-based; settings: in vivo
[25] = AUC (0 to 24 hrs) in rat at 1 mg/kg, iv; assay type: ADME, organism-based; design: dose 1 mg/kg, time < 24 hr, route intravenous; settings: in vivo
[26] = target: CYP3A4 (Homo sapiens, UniProt P08684); experiment: Inhibition of human CYP3A4 at 10 uM; assay type: ADME
[27] = target: Metabotropic glutamate receptor 4 (Homo sapiens, UniProt Q14833); experiment: Agonist activity at recombinant human mGlu4 receptor expressed in hamster AV12 cells co-expressing human EAAT1/Galpha1s assessed as increase in Ca2+ flux by Fluo-3-AM dye based FLIPR assay; assay type: functional, cell-based
[28] = target: T4, Metabotropic glutamate receptor 2 (Homo sapiens, UniProt Q14416); experiment: Displacement of [3H]-LY459477 from human mGlu2 receptor expressed in hamster AV12 cell membranes co-expressing human EAAT1 after 90 mins by liquid scintillation counting method
Target sequence in this assay (Q14416 whole entry): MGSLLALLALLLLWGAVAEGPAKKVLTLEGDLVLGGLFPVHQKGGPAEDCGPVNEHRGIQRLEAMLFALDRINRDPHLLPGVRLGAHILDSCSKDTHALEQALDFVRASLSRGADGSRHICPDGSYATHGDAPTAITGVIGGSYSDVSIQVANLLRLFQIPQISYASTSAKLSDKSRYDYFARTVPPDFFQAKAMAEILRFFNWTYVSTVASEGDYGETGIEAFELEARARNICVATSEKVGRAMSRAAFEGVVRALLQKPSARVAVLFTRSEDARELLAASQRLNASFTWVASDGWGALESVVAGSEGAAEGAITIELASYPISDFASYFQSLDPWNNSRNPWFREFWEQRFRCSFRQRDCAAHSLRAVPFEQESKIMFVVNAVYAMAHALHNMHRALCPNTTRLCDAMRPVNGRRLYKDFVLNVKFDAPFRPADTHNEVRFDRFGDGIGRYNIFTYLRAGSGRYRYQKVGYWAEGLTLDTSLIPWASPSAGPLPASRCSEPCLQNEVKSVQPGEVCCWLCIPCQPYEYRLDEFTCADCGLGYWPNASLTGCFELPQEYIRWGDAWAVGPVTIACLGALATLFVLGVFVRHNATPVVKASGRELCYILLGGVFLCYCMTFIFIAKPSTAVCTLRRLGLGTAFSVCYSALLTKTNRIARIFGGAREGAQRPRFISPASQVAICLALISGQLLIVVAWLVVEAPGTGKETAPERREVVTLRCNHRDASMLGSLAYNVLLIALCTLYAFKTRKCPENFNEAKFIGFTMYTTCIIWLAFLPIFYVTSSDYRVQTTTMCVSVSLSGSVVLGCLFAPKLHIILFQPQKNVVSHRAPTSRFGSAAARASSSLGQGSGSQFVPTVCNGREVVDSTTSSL

[29] = Antidepressant activity in rat EEG model assessed as accumulated wake time at 3 mg/kg, ip measured over 7 hrs relative to control; assay type: functional, organism-based
[30] = Plasma concentration in NIH Swiss Webster mouse at 1 mg/kg, ip at 30 mins; assay type: ADME, organism-based
[31] = target: T4, Metabotropic glutamate receptor 2; experiment: Antagonist activity at recombinant human mGlu2 receptor expressed in hamster AV12 cells assessed as inhibition of DCG-4-inhibited forskolin-stimulated cAMP formation up to 25 uM after 20 min by HTRF assay relative to control; assay type: functional, cell-based
Target sequence in this assay (Q14416 19-872 limits assumed): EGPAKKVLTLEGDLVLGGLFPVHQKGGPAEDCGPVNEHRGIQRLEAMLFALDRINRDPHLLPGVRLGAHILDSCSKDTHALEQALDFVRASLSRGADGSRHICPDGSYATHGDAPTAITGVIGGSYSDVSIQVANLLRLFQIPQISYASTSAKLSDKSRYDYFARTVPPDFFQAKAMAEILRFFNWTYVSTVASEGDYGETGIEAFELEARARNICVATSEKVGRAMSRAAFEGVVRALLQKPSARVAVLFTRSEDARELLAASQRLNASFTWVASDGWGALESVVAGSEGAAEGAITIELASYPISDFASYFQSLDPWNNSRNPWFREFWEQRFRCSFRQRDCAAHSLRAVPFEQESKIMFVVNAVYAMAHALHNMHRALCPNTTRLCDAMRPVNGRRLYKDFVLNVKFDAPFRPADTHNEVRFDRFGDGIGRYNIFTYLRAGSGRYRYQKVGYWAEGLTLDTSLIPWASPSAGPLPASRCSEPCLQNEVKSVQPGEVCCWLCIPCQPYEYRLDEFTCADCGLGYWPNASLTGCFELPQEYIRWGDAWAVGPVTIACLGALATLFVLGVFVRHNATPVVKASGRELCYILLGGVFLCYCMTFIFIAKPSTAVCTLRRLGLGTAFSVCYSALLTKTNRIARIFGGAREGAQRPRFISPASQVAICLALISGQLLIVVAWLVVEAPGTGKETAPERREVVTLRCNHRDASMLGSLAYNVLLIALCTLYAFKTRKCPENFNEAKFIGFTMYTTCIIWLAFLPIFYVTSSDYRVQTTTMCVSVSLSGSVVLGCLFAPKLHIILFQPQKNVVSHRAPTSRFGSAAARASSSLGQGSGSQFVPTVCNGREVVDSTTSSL

[32] = target: T1, Metabotropic glutamate receptor 3; experiment: Antagonist activity at recombinant human mGlu3 receptor expressed in hamster AV12 cells co-expressing human EAAT1 assessed as reduction of DCG-4-inhibited forskolin-stimulated cAMP formation after 20 mins by HTRF assay; assay type: functional, cell-based
[33] = target: T3, Metabotropic glutamate receptor 5; experiment: Antagonist activity at recombinant human mGlu5 receptor expressed in hamster AV12 cells coexpressing human EAAT1/Galpha1s assessed as inhibition of Ca2+ flux by Fluo-3-AM dye based FLIPR assay; assay type: functional, cell-based
[34] = target: T2, Metabotropic glutamate receptor 7; experiment: Antagonist activity at recombinant human mGlu7 receptor expressed in hamster AV12 cells co-expressing human EAAT1/Galpha1s assessed as inhibition of Ca2+ flux by Fluo-3-AM dye based FLIPR assay; assay type: functional, cell-based
[35] = test system: Rattus norvegicus; experiment: Toxicity in rat assessed as NREM sleep at 3 to 10 mg/kg, ip; assay type: organism-based; settings: in vivo
[36] = Plasma concentration in NIH Swiss Webster mouse at 0.3 mg/kg, ip at 30 mins; assay type: ADME, organism-based
[37] = target: CYP2C9 (Homo sapiens, UniProt P11712); experiment: Inhibition of human CYP2C9 at 10 uM; assay type: ADME
[38] = Tmax in rat at 5 mg/kg, po; assay type: ADME, organism-based; settings: in vivo
[39] = Unbound fraction in monkey plasma at 1 uM; assay type: ADME, cell-free, Macaca mulatta; settings: rhesus monkey
[40] = target: CYP2D6 (Homo sapiens, UniProt P10635); experiment: Inhibition of human CYP2D6 at 10 uM; assay type: ADME
[41] = Plasma concentration in NIH Swiss Webster mouse at 3 mg/kg, ip at 30 mins; assay type: ADME, organism-based
[42] = target: T4, Metabotropic glutamate receptor 2; experiment: Agonist activity at recombinant human mGlu2 receptor expressed in hamster AV12 cells co-expressing human EAAT1 assessed as increase in forskolin-stimulated cAMP formation up to 25 uM after 20 mins by HTRF assay; assay type: functional, cell-based
Target sequence in this assay (Q14416 whole entry): as the sequence (Q14416 whole entry) above

T3 sequence (P41594 whole entry): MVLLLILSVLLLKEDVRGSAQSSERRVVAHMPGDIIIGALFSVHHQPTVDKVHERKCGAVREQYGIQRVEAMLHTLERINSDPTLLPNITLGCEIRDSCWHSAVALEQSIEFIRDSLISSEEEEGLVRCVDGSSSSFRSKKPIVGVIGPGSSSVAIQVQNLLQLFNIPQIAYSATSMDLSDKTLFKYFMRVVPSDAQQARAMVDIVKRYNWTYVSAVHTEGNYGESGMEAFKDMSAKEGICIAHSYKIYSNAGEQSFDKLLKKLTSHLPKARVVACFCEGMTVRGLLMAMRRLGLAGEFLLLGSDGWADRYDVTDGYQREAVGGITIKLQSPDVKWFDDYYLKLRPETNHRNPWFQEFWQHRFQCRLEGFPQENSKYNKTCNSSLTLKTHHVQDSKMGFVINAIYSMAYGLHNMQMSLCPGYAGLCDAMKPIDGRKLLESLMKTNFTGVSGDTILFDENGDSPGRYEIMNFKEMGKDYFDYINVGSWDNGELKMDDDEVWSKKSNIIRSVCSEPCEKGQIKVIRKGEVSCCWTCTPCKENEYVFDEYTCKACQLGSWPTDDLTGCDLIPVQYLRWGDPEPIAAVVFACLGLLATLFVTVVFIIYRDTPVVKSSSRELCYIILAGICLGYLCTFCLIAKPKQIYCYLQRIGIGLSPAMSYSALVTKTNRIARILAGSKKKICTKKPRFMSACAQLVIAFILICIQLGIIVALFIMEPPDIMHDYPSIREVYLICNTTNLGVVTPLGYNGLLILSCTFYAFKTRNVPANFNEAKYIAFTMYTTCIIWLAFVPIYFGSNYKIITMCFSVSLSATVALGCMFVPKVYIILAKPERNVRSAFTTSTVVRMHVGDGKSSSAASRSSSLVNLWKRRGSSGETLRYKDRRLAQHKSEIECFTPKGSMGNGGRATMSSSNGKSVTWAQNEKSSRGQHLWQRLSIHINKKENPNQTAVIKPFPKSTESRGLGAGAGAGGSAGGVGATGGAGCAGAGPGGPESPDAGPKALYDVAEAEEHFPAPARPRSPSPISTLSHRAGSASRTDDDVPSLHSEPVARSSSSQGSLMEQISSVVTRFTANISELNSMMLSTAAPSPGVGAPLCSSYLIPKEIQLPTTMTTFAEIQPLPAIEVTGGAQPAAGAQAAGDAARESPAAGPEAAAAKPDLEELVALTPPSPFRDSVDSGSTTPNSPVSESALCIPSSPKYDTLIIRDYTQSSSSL
T2 sequence (Q14831 whole entry): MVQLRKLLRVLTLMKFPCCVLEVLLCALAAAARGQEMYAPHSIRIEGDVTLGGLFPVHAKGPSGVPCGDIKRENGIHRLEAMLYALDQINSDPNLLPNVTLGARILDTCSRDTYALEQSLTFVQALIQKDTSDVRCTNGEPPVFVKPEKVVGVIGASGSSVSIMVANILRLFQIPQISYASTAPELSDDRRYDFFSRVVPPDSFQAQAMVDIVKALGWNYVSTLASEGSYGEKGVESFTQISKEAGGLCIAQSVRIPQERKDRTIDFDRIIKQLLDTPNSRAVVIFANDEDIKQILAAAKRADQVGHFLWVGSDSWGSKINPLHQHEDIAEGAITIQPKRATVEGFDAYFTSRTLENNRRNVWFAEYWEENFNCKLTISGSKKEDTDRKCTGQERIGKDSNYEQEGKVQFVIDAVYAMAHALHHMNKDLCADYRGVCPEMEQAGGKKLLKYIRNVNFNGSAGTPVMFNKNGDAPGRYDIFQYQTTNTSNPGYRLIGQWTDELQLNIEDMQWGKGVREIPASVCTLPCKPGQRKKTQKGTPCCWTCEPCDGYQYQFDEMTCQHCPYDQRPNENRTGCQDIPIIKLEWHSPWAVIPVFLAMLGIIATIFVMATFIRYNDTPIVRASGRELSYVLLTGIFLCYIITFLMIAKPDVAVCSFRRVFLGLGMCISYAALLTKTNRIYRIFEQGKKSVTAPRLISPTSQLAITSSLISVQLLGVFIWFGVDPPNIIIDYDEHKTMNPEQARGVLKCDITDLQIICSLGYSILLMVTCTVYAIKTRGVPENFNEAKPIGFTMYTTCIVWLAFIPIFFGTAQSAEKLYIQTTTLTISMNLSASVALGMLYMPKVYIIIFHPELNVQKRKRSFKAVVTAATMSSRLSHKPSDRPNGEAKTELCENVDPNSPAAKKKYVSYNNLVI

inhibition [1]: Active
EC50 [3]: > 50 µM
solubility [5]: 778 µg/mL (≈ 2070 µM)
EC50 [6]: > 25 µM
Cmax [7]: 33900 nM
inhibition [8]: < 1%
Cmax [10]: 262 nM
permeability [11]: 2%
fraction unbound [12]: 0.56
concentration at 0.5 h [13]: 248 nM
EC50 [14]: > 12.5 µM
fraction unbound at 1 µM [15]: > 0.4
concentration at 0.5 h [16]: 72 nM
IC50 [17]: > 12.5 µM
EC50 [18]: > 25 µM
AUC(0-t) at 24 h [19]: 116 µM·h
half-life [21]: 5.49 h
F [22]: 6%
half-life [23]: 4.48 h
Tmax [24]: 0.38 h
AUC [25]: 32.165 µM·h
inhibition at 10 µM [26]: < 5%
EC50 [27]: > 25 µM
Ki [28]: 0.0201 µM
concentration at 0.5 h [30]: 4810 nM
inhibition [31]: Active
IC50 [32]: 0.0461 µM
Imax [32]: > 94%
IC50 [33]: > 12.5 µM
IC50 [34]: 10.5 µM
concentration at 0.5 h [36]: 1290 nM
inhibition at 10 µM [37]: < 5%
Tmax [38]: 1.67 h
fraction unbound at 1 µM [39]: > 0.4
inhibition at 10 µM [40]: < 5%
concentration at 0.5 h [41]: 16500 nM
EC50 [42]: > 25 µM
SMILES: N[C@]1(C(=O)O)[C@@H]2[C@@H](C(=O)O)[C@@H]2[C@H](O)[C@H]1OCc1ccc(Cl)c(Cl)c1
Ki [2]: > 100 µM
TIME [4]: 2.18 h
ED60 [9]: 0.72 mg/kg
MED [9]: 1 mg/kg
TIME [20]: 0.0272 h
Activity [29]: Dose-dependent effect
Activity [35]: Non-Toxic
